{"source": "patent US20110015587A1", "about": "“Irrigation Device and Method Using Same” (priority 2009, published 2011)", "origin": "cited, not measured here", "key": {"Escherichia coli": {"system": "Escherichia coli", "settings": "Escherichia coli exposed to hypochlorous acid"}, "bacteria [1]": {"system": "bacteria", "settings": "2.6 ppm, 5 minutes"}, "[2]": {"system": "gram-negative and gram-positive bacteria, fungi and yeast including MRSA, Pseudomanas aeruginosa, VRE"}, "bacteria [3]": {"system": "bacteria", "settings": "very low concentrations"}, "[4]": {"system": "cellular components of wound healing"}}, "data": [{"compound": "OCl", "note": "[Hypochlorous acid]", "values": [{"measurement": "time to loss of viability", "setting": "Escherichia coli", "value": "less than 100 ms"}, {"measurement": "growth inhibition", "setting": "bacteria [1]", "value": 100, "unit": "%"}]}, {"compound": "Polyaminopropyl biguanide [PAPB]", "values": [{"measurement": "toxicity to higher organisms such as human cells", "setting": "human cells", "value": "very low toxicity"}, {"measurement": "activity against gram-negative and gram-positive bacteria, fungi and yeast", "setting": "[2]", "value": "active"}, {"measurement": "bactericidal concentration", "setting": "bacteria [3]", "value": 10, "unit": "mg/L"}]}, {"compound": "povidone-iodine", "values": [{"measurement": "cytotoxicity to the cellular components of wound healing", "setting": "[4]", "value": "cytotoxic"}]}]}
